{"source": "patent US20020137929A1", "about": "“1 - (3-heterocyclylphenyl) isothiourea, -isourea, -guanidine and -amidine herbicidal agents” (Intellectual Property Department, BASF Aktiengesellschaft, priority 1998, published 2002)", "key": {"[1]": {"system": "ABUTH (Velvetleaf)", "assay": "Postemergence herbicidal evaluation", "assay_type": "in vivo, Abutilon theophrasti", "conditions": "postemergence", "outline": "(§1)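 Two-week seedlings sprayed postemergence at 40 psi; formulation: 1:1 acetone/water, 0.5% TWEEN 20; application ≈0.0156–0.500 kg/ha. Greenhouse grow-out, then 0–9 visual scoring at 4–5 weeks.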"}, "[2]": {"system": "CASOB (Sicklepod)", "assay": "Postemergence herbicidal evaluation", "assay_type": "in vivo, Cassia obtusifolia", "conditions": "postemergence", "outline": "as §1"}, "[3]": {"system": "CHEAL (Lambsquarters, Common)", "assay": "Postemergence herbicidal evaluation", "assay_type": "in vivo, Chenopodium album", "conditions": "postemergence", "outline": "as §1"}, "[4]": {"system": "GALAP (Galium)", "assay": "Postemergence herbicidal evaluation", "assay_type": "in vivo, Galium aparine", "conditions": "postemergence", "outline": "as §1"}, "[5]": {"system": "IPOHE (Morningglory, Ivyleaf)", "assay": "Postemergence herbicidal evaluation", "assay_type": "in vivo, Ipomoea hederacea", "conditions": "postemergence", "outline": "as §1"}, "[6]": {"system": "TRZAWR (Wheat, Winter, cv Riband)", "assay": "Postemergence herbicidal evaluation", "assay_type": "in vivo, Triticum aestivum", "conditions": "postemergence", "outline": "as §1"}, "[7]": {"system": "ZEAMX (Corn, Field)", "assay": "Postemergence herbicidal evaluation", "assay_type": "in vivo, Zea mays", "conditions": "postemergence", "outline": "as §1"}, "[8]": {"system": "CASOB (Sicklepod)", "assay": "Preemergence herbicidal evaluation", "assay_type": "in vivo, Cassia obtusifolia", "conditions": "rated 4-5 weeks after treatment", "outline": "(§2)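 In this greenhouse assay, monocot and dicot seeds are planted in soil and treated prior to emergence with an aqueous acetone spray (about 0.0156-0.500 kg/ha). Plants are assessed visually against control on a 0-9 scale after 4-5 weeks.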"}, "[9]": {"system": "GALAP (Galium)", "assay": "Preemergence herbicidal evaluation", "assay_type": "in vivo, Galium aparine", "conditions": "rated 4-5 weeks after treatment", "outline": "as §2"}, "[10]": {"system": "IPOHE (Morningglory, Ivyleaf)", "assay": "Preemergence herbicidal evaluation", "assay_type": "in vivo, Ipomoea hederacea", "conditions": "rated 4-5 weeks after treatment", "outline": "as §2"}, "[11]": {"system": "ECHCG (Barnyardgrass)", "assay": "Preemergence herbicidal evaluation", "assay_type": "in vivo, Echinochloa crus-galli", "conditions": "rated 4-5 weeks after treatment", "outline": "as §2"}, "[12]": {"system": "SETVI (Foxtail, Green)", "assay": "Preemergence herbicidal evaluation", "assay_type": "in vivo, Setaria viridis", "conditions": "rated 4-5 weeks after treatment", "outline": "as §2"}, "[13]": {"system": "ORYSAT (Rice, Tebonnet)", "assay": "Preemergence herbicidal evaluation", "assay_type": "in vivo, Oryza sativa, (L.) Tebonnet", "conditions": "rated 4-5 weeks after treatment", "outline": "as §2"}, "[14]": {"system": "TRZAWR (Wheat, Winter, cv Riband)", "assay": "Preemergence herbicidal evaluation", "assay_type": "in vivo, Triticum aestivum", "conditions": "rated 4-5 weeks after treatment", "outline": "as §2"}, "[15]": {"system": "MOOVA (Monochoria)", "assay": "Preemergence weed control under flooded paddy conditions", "assay_type": "in vivo, Monochoria vaginalis", "conditions": "rated 3-4 weeks after treatment", "outline": "(§3)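 Seeds or propagules sown in silt loam kept flooded 1.5-3 cm; compounds in 50/50 acetone/water pipetted into flood water at about 0.0313 to 0.500 kg/ha. Greenhouse; visual 0-9 rating versus untreated control 3-4 weeks after treatment.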"}, "[16]": {"system": "SAGPY (Arrowhead (Pygmaea))", "assay": "Preemergence weed control under flooded paddy conditions", "assay_type": "in vivo, Sagittaria pygmaea", "conditions": "rated 3-4 weeks after treatment", "outline": "as §3"}}, "data": [{"smiles": "COC(=O)C(C)OC(=O)CN1C(=O)CSC1=Nc1cc(-n2c(=O)cc(C(F)(F)F)n(C)c2=O)c(F)cc1Cl", "note": "(stereo not shown) [Compound 116, 2-{{2-Chloro-5-[3,6-dihydro-3-methyl-2,6-dioxo-4-(trifluoromethyl)-1(2H)-pyrimidinyl]-4-fluorophenyl}imino}-4-oxo-3-thiazolidineacetic acid, ester with methyl lactate]", "values": [{"measurement": "Herbicidal rating ABUTH", "setting": "[1]; rate 0.0158 kg/ha", "result": 9.0}, {"measurement": "Herbicidal rating ABUTH", "setting": "[1]; rate 0.0315 kg/ha", "result": 9.0}, {"measurement": "Herbicidal rating ABUTH", "setting": "[1]; rate 0.0630 kg/ha", "result": 9.0}, {"measurement": "Herbicidal rating CASOB", "setting": "[2]; rate 0.0158 kg/ha", "result": 1.0}, {"measurement": "Herbicidal rating CASOB", "setting": "[2]; rate 0.0315 kg/ha", "result": 1.0}, {"measurement": "Herbicidal rating CASOB", "setting": "[2]; rate 0.0630 kg/ha", "result": 1.0}, {"measurement": "Herbicidal rating CHEAL", "setting": "[3]; rate 0.0158 kg/ha", "result": 4.0}, {"measurement": "Herbicidal rating CHEAL", "setting": "[3]; rate 0.0315 kg/ha", "result": 5.0}, {"measurement": "Herbicidal rating CHEAL", "setting": "[3]; rate 0.0630 kg/ha", "result": 9.0}, {"measurement": "Herbicidal rating GALAP", "setting": "[4]; rate 0.0158 kg/ha", "result": 0.0}, {"measurement": "Herbicidal rating GALAP", "setting": "[4]; rate 0.0315 kg/ha", "result": 0.0}, {"measurement": "Herbicidal rating GALAP", "setting": "[4]; rate 0.0630 kg/ha", "result": 0.0}, {"measurement": "Herbicidal rating IPOHE", "setting": "[5]; rate 0.0158 kg/ha", "result": 9.0}, {"measurement": "Herbicidal rating IPOHE", "setting": "[5]; rate 0.0315 kg/ha", "result": 9.0}, {"measurement": "Herbicidal rating IPOHE", "setting": "[5]; rate 0.0630 kg/ha", "result": 9.0}, {"measurement": "Herbicidal rating TRZAWR", "setting": "[6]; rate 0.0158 kg/ha", "result": 1.5}, {"measurement": "Herbicidal rating TRZAWR", "setting": "[6]; rate 0.0315 kg/ha", "result": 2.5}, {"measurement": "Herbicidal rating TRZAWR", "setting": "[6]; rate 0.0630 kg/ha", "result": 2.5}, {"measurement": "Herbicidal rating ZEAMX", "setting": "[7]; rate 0.0158 kg/ha", "result": 4.5}, {"measurement": "Herbicidal rating ZEAMX", "setting": "[7]; rate 0.0315 kg/ha", "result": 4.5}, {"measurement": "Herbicidal rating ZEAMX", "setting": "[7]; rate 0.0630 kg/ha", "result": 4.5}, {"measurement": "Preemergence herbicidal rating CASOB", "setting": "[8]; rate 0.0156 kg/ha", "result": 0.0}, {"measurement": "Preemergence herbicidal rating CASOB", "setting": "[8]; rate 0.0313 kg/ha", "result": 0.0}, {"measurement": "Preemergence herbicidal rating CASOB", "setting": "[8]; rate 0.0625 kg/ha", "result": 0.0}, {"measurement": "Preemergence herbicidal rating CASOB", "setting": "[8]; rate 0.1250 kg/ha", "result": 0.0}, {"measurement": "Preemergence herbicidal rating CASOB", "setting": "[8]; rate 0.2500 kg/ha", "result": 2.0}, {"measurement": "Preemergence herbicidal rating GALAP", "setting": "[9]; rate 0.0156 kg/ha", "result": 0.0}, {"measurement": "Preemergence herbicidal rating GALAP", "setting": "[9]; rate 0.0313 kg/ha", "result": 0.0}, {"measurement": "Preemergence herbicidal rating GALAP", "setting": "[9]; rate 0.0625 kg/ha", "result": 0.0}, {"measurement": "Preemergence herbicidal rating GALAP", "setting": "[9]; rate 0.1250 kg/ha", "result": 0.0}, {"measurement": "Preemergence herbicidal rating GALAP", "setting": "[9]; rate 0.2500 kg/ha", "result": 7.0}, {"measurement": "Preemergence herbicidal rating IPOHE", "setting": "[10]; rate 0.0156 kg/ha", "result": 0.0}, {"measurement": "Preemergence herbicidal rating IPOHE", "setting": "[10]; rate 0.0313 kg/ha", "result": 0.0}, {"measurement": "Preemergence herbicidal rating IPOHE", "setting": "[10]; rate 0.0625 kg/ha", "result": 0.0}, {"measurement": "Preemergence herbicidal rating IPOHE", "setting": "[10]; rate 0.1250 kg/ha", "result": 1.0}, {"measurement": "Preemergence herbicidal rating IPOHE", "setting": "[10]; rate 0.2500 kg/ha", "result": 3.0}, {"measurement": "Preemergence herbicidal rating ECHCG", "setting": "[11]; rate 0.0156 kg/ha", "result": 0.0}, {"measurement": "Preemergence herbicidal rating ECHCG", "setting": "[11]; rate 0.0313 kg/ha", "result": 0.0}, {"measurement": "Preemergence herbicidal rating ECHCG", "setting": "[11]; rate 0.0625 kg/ha", "result": 0.0}, {"measurement": "Preemergence herbicidal rating ECHCG", "setting": "[11]; rate 0.1250 kg/ha", "result": 0.0}, {"measurement": "Preemergence herbicidal rating ECHCG", "setting": "[11]; rate 0.2500 kg/ha", "result": 0.0}, {"measurement": "Preemergence herbicidal rating SETVI", "setting": "[12]; rate 0.0156 kg/ha", "result": 0.0}, {"measurement": "Preemergence herbicidal rating SETVI", "setting": "[12]; rate 0.0313 kg/ha", "result": 0.0}, {"measurement": "Preemergence herbicidal rating SETVI", "setting": "[12]; rate 0.0625 kg/ha", "result": 0.0}, {"measurement": "Preemergence herbicidal rating SETVI", "setting": "[12]; rate 0.1250 kg/ha", "result": 0.0}, {"measurement": "Preemergence herbicidal rating SETVI", "setting": "[12]; rate 0.2500 kg/ha", "result": 3.0}, {"measurement": "Preemergence herbicidal rating ORYSAT", "setting": "[13]; rate 0.0156 kg/ha", "result": 0.0}, {"measurement": "Preemergence herbicidal rating ORYSAT", "setting": "[13]; rate 0.0313 kg/ha", "result": 0.0}, {"measurement": "Preemergence herbicidal rating ORYSAT", "setting": "[13]; rate 0.0625 kg/ha", "result": 0.0}, {"measurement": "Preemergence herbicidal rating ORYSAT", "setting": "[13]; rate 0.1250 kg/ha", "result": 0.0}, {"measurement": "Preemergence herbicidal rating ORYSAT", "setting": "[13]; rate 0.2500 kg/ha", "result": 1.0}, {"measurement": "Preemergence herbicidal rating TRZAWR", "setting": "[14]; rate 0.0156 kg/ha", "result": 0.0}, {"measurement": "Preemergence herbicidal rating TRZAWR", "setting": "[14]; rate 0.0313 kg/ha", "result": 0.0}, {"measurement": "Preemergence herbicidal rating TRZAWR", "setting": "[14]; rate 0.0625 kg/ha", "result": 0.0}, {"measurement": "Preemergence herbicidal rating TRZAWR", "setting": "[14]; rate 0.1250 kg/ha", "result": 0.0}, {"measurement": "Preemergence herbicidal rating TRZAWR", "setting": "[14]; rate 0.2500 kg/ha", "result": 1.0}, {"measurement": "herbicidal effect rating, MOOVA", "setting": "[15]; 0.0313 kg/ha", "result": 7.0}, {"measurement": "herbicidal effect rating, MOOVA", "setting": "[15]; 0.0625 kg/ha", "result": 9.0}, {"measurement": "MOOVA herbicidal effect rating", "setting": "[15]; 0.1250 kg/ha", "result": 9.0}, {"measurement": "MOOVA herbicidal effect rating", "setting": "[15]; 0.2500 kg/ha", "result": 9.0}, {"measurement": "herbicidal effect rating, SAGPY", "setting": "[16]; 0.0313 kg/ha", "result": 2.0}, {"measurement": "herbicidal effect rating, SAGPY", "setting": "[16]; 0.0625 kg/ha", "result": 3.0}, {"measurement": "SAGPY herbicidal effect rating", "setting": "[16]; 0.1250 kg/ha", "result": 5.0}, {"measurement": "SAGPY herbicidal effect rating", "setting": "[16]; 0.2500 kg/ha", "result": 6.0}]}]}
